Assay results from patent EP4772162A1, “COMPOSITION FOR IMPROVING SKIN CONDITION COMPRISING PEPTIDE AS ACTIVE INGREDIENT” (Caregen Co., Ltd., priority 2023, dated 2025).
Peptide text beside a SMILES is read from it.

Legend:
[1] = test system: collagen Iα1 (Collagen, type I, alpha 1) gene; assay: mRNA expression of extracellular matrix component genes (RT-PCR); assay type: cell-based, mouse; settings: NIH3T3 cells; peptide at 10 µM, 50 µM, and 100 µM; 24 hours; FIG. 1
Description: (§1) The effect of the peptide prepared in Preparation Example 1 on expression of extracellular matrix (ECM) components was evaluated by measuring mRNA expression levels of the genes of the respective components.
(§2) NIH3T3 cells (a mouse fibroblast cell line) were seeded in a 6-well plate at a density of 3 x 10^5 cells/well and cultured for 24 hours. The cultured cells were washed once with serum-free DMEM. The peptide prepared in Preparation Example 1 was mixed into serum-free DMEM at each concentration to prepare medium solutions containing the peptide at 10 µM, 50 µM, and 100 µM, and the medium solutions were added to the cells. The cells were cultured for 24 hours in a CO2 incubator at 37°C and washed twice with PBS, and then RNA was isolated using easy blue (iNtRON, Cat. No.: 17061, Korea). The amount of RNA was quantified, 1,000 ng of RNA was added per tube, and then cDNA synthesis was performed using an RT kit (enzynomics, Cat. No.: RT200, Korea). Thereafter, PCR was performed using a PCR kit (enzynomics, Cat. No.: P581T, Korea), with collagen Iα1, fibronectin, or elastin gene as a detection target.

elastin gene [2] = assay: as above; assay type: cell-based, mouse; settings: NIH3T3 cells; peptide at 10 µM, 50 µM, and 100 µM; 24 hours; FIG. 1
Description: as §1, §2

fibronectin gene [3] = assay: as above; assay type: cell-based, mouse; settings: NIH3T3 cells; peptide at 10 µM, 50 µM, and 100 µM; 24 hours; FIG. 1
Description: as §1, §2

AQP3 (Aquaporin 3) gene = assay: mRNA expression of skin barrier-related genes (RT-PCR); assay type: cell-based, human; settings: HaCaT cells; peptide at 10 µM, 50 µM, and 100 µM; 24 hours; FIG. 2
Description: (§3) The effect of the peptide prepared in Preparation Example 1 on expression of genes related to a skin barrier was evaluated.
as §2, with “HaCaT” for “NIH3T3”, “human keratinocyte” for “mouse fibroblast”, “SIRT1 (Sirtuin 1)” for “collagen Iα1, fibronectin,”, “AQP3 (Aquaporin 3)” for “elastin”

SIRT1 (Sirtuin 1) gene = assay: as above; assay type: cell-based, human; settings: HaCaT cells; peptide at 10 µM, 50 µM, and 100 µM; 24 hours; FIG. 2
Description: as §3
as §2, with “HaCaT” for “NIH3T3”, “human keratinocyte” for “mouse fibroblast”, “SIRT1 (Sirtuin 1)” for “collagen Iα1, fibronectin,”, “AQP3 (Aquaporin 3)” for “elastin”

[4] = test system: reactive oxygen species (ROS) in NIH3T3 cells; assay: Inhibition of UV-induced generation of reactive oxygen species (DCFH-DA, FACS); assay type: cell-based, mouse; settings: UVA at 6 J/cm^2, peptide at 10 µM, 50 µM, and 100 µM, 24 hours after irradiation, FIG. 3A
Description: (§4) NIH3T3 cells (a mouse fibroblast cell line) and HaCaT cells (a human keratinocyte cell line) were seeded in a 6-well plate at a density of 5 x 10^5 cells/well and cultured for 24 hours. The cultured cells were washed once with serum-free DMEM. The peptide prepared in Preparation Example 1 was mixed into serum-free DMEM at each concentration to prepare medium solutions containing the peptide at 10 µM, 50 µM, and 100 µM, and the medium solutions were added to the cells. The cells to which the peptide was added were cultured for 1 hour in a CO2 incubator at 37°C. After the culture, the medium was removed from the cells, and PBS was added. Using a UV irradiator (VILBER LOURMAT, Cat. No.: 3102-BSU, France), NIH3T3 cells were irradiated with UVA at 6 J/cm^2, and HaCaT cells were irradiated with UVB at 15 mJ/cm^2. After PBS was removed, the above-described peptide-containing medium solutions at the respective concentrations were added again to the cells. The cells to which the peptide was added were cultured for 24 hours in a CO2 incubator at 37°C. After treatment with 10 µM DCFH-DA (2',7'-dichlorofluorescein diacetate), the cells were wrapped in foil and cultured for 30 minutes in a CO2 incubator at 37°C. Subsequently, the cells were washed twice with PBS and then collected, and fluorescence values were measured by FACS.

[5] = test system: reactive oxygen species (ROS) in HaCaT cells; assay: as above; assay type: cell-based, human; settings: UVB at 15 mJ/cm^2, peptide at 10 µM, 50 µM, and 100 µM, 24 hours after irradiation, FIG. 3B
Description: as §4

collagen Iα1 gene = assay: Restoration of expression of extracellular matrix genes reduced by UV irradiation (RT-PCR); assay type: cell-based, mouse; settings: NIH3T3 cells; UVA at 6 J/cm^2; peptide at 10 µM, 50 µM, and 100 µM; 6 hours after irradiation; FIG. 4
Description: (§5) Whether the peptide of SEQ ID NO: 1 prepared in Preparation Example 1 restores expression levels of extracellular matrix genes reduced by UV irradiation was evaluated.
(§6) NIH3T3 cells (a mouse fibroblast cell line) were seeded in a 6-well plate at a density of 5 x 10^5 cells/well and cultured for 24 hours. The cultured cells were washed once with serum-free DMEM. The peptide prepared in Preparation Example 1 was mixed into serum-free DMEM at each concentration to prepare medium solutions containing the peptide at 10 µM, 50 µM, and 100 µM, and the medium solutions were added to the cells. The cells to which the peptide was added were cultured for 1 hour in a CO2 incubator at 37°C. After the cells were cultured, the medium was removed from the cells, and PBS was added. Using a UV irradiator (VILBER LOURMAT, Cat. No.: 3102-BSU, France), the cells were irradiated with UVA at 6 J/cm^2. After PBS was removed, the above-described peptide-containing medium solutions at the respective concentrations were added again to the cells. The cells to which the peptide was added were cultured for 6 hours in a CO2 incubator at 37°C. After the cells were washed twice with PBS, RNA was isolated using easy blue (iNtRON, Cat. No.: 17061, Korea). The amount of RNA was quantified, 1,000 ng of RNA was added per tube, and then cDNA synthesis was performed using an RT kit (enzynomics, Cat. No.: RT200, Korea). Subsequently, PCR was performed using a PCR kit (enzynomics, Cat. No.: P581T, Korea), with collagen Iα1, fibronectin, or elastin gene as a detection target.

elastin gene [6] = assay: as above; assay type: cell-based, mouse; settings: NIH3T3 cells; UVA at 6 J/cm^2; peptide at 10 µM, 50 µM, and 100 µM; 6 hours after irradiation; FIG. 4
Description: as §5, §6

fibronectin gene [7] = assay: as above; assay type: cell-based, mouse; settings: NIH3T3 cells; UVA at 6 J/cm^2; peptide at 10 µM, 50 µM, and 100 µM; 6 hours after irradiation; FIG. 4
Description: as §5, §6

AQP3 gene = assay: Restoration of expression of skin barrier-related genes reduced by UV irradiation (RT-PCR); assay type: cell-based, human; settings: HaCaT cells; UVB at 20 mJ/cm^2; peptide at 10 µM, 50 µM, and 100 µM; 4 hours after irradiation; FIG. 5
Description: (§7) Whether the peptide of SEQ ID NO: 1 prepared in Preparation Example 1 restores expression levels of skin barrier-related genes reduced by UV irradiation was evaluated.
as §6, with “HaCaT cells” for “NIH3T3 cells”, “(a human keratinocyte” for “(a mouse fibroblast”, “with UVB” for “with UVA”, “at 20 mJ/cm^2.” for “at 6 J/cm^2.”, “for 4” for “for 6”, “Korea). […]” for “Korea). Subsequently, PCR was performed using a PCR kit (enzynomics, Cat. No.: P581T, Korea), with collagen Iα1, fibronectin, or elastin gene as a detection target.”

SIRT1 gene = assay: as above; assay type: cell-based, human; settings: HaCaT cells; UVB at 20 mJ/cm^2; peptide at 10 µM, 50 µM, and 100 µM; 4 hours after irradiation; FIG. 5
Description: as §7
as §6, with “HaCaT cells” for “NIH3T3 cells”, “(a human keratinocyte” for “(a mouse fibroblast”, “with UVB” for “with UVA”, “at 20 mJ/cm^2.” for “at 6 J/cm^2.”, “for 4” for “for 6”, “Korea). […]” for “Korea). Subsequently, PCR was performed using a PCR kit (enzynomics, Cat. No.: P581T, Korea), with collagen Iα1, fibronectin, or elastin gene as a detection target.”

MMP-1 in NIH3T3 cells = assay: Inhibition of UV-induced MMP-1 expression (Western blot); assay type: cell-based, mouse; settings: UVA at 6 J/cm^2, peptide at 10 µM, 50 µM, and 100 µM, 24 hours after irradiation, FIG. 6A
Description: (§8) The effect of the peptide of SEQ ID NO: 1 prepared in Preparation Example 1 on MMP-1 expression induced by UV was evaluated.
(§9) NIH3T3 cells (a mouse fibroblast cell line) and HaCaT cells (a human keratinocyte cell line) were seeded in a 6-well plate at a density of 5 x 10^5 cells/well and cultured for 24 hours. The cultured cells were washed once with serum-free DMEM. The peptide prepared in Preparation Example 1 was mixed into serum-free DMEM at each concentration to prepare medium solutions containing the peptide at 10 µM, 50 µM, and 100 µM, and the medium solutions were added to the cells. The cells to which the peptide was added were cultured for 1 hour in a CO2 incubator at 37°C. After the cells were cultured, the medium was removed from the cells, and PBS was added. Using a UV irradiator (VILBER LOURMAT, Cat. No.: 3102-BSU, France), NIH3T3 cells were irradiated with UVA at 6 J/cm^2, and HaCaT cells were irradiated with UVB at 15 mJ/cm^2. After PBS was removed, the above-described peptide-containing medium solutions at the respective concentrations were added again to the cells. The cells to which the peptide was added were cultured for 24 hours in a CO2 incubator at 37°C. […] After treatment with an ECL solution (GE Healthcare, Cat. No.: RPN2232, USA), expression levels were analyzed using an ImageQuant 800 instrument (Cytiva, Cat. No.: 29-3994-81, USA).

MMP-1 in HaCaT cells = assay: as above; assay type: cell-based, human; settings: UVB at 15 mJ/cm^2, peptide at 10 µM, 50 µM, and 100 µM, 24 hours after irradiation, FIG. 6B
Description: as §8, §9

CC(C)C[C@H](NC(=O)[C@H](CC(C)C)NC(=O)[C@@H](N)CCCNC(=N)N)C(=O)N[C@@H](CC(N)=O)C(=O)O [peptide of SEQ ID NO: 1, RLLN] (H-RLLN-OH)
mRNA expression level of collagen Iα1 (Collagen, type I, alpha 1) gene [1]: increased | mRNA expression level of elastin gene (elastin gene [2]): increased | mRNA expression level of fibronectin gene (fibronectin gene [3]): increased | mRNA expression level of AQP3 (Aquaporin 3) gene (AQP3 (Aquaporin 3) gene): increased | mRNA expression level of SIRT1 (Sirtuin 1) gene (SIRT1 (Sirtuin 1) gene): increased | intracellular ROS levels increased by UV irradiation [4]: reduced | intracellular ROS levels increased by UV irradiation [5]: reduced | mRNA expression level of collagen Iα1 gene reduced by UV irradiation (collagen Iα1 gene): increased again | mRNA expression level of elastin gene reduced by UV irradiation (elastin gene [6]): increased again | mRNA expression level of fibronectin gene reduced by UV irradiation (fibronectin gene [7]): increased again | mRNA expression level of AQP3 gene reduced by UV irradiation (AQP3 gene): restored | mRNA expression level of SIRT1 gene reduced by UV irradiation (SIRT1 gene): restored | increase in MMP-1 expression induced by UV irradiation (MMP-1 in NIH3T3 cells): inhibited | increase in MMP-1 expression induced by UV irradiation (MMP-1 in HaCaT cells): inhibited
